The values below come from PMC2917178 (Biochemistry, 2010).

By Km is commonly meant the substrate concentration at which the rate is half of its maximum. What is called Kd is a measure of binding affinity in units of concentration. As a reminder, the Ki is a dissociation constant, usually derived from enzyme kinetics or from competition with a known ligand. Lower therefore signals tighter binding.

In data set [1] the target is Rtt109 D287N (with Vps75) (Saccharomyces cerevisiae, UniProt P53853+Q07794, D287N). In kind it is biochemical, yeast (Saccharomyces cerevisiae). The conditions noted are these: AcCoA varied 0.5-30 μM, 400 μM H3 peptide, 0.1-0.5 μM Rtt109 variant, 4 μM Vps75, 50 mM Tris pH 7.5, 25 °C.
The target in data set [2] is Rtt109 D288N (with Vps75) (Saccharomyces cerevisiae, UniProt P53853+Q07794, D288N). The class given is biochemical, yeast (Saccharomyces cerevisiae). The settings on record: AcCoA varied 0.5-30 μM, 400 μM H3 peptide, 0.1-0.5 μM Rtt109 variant, 4 μM Vps75, 50 mM Tris pH 7.5, 25 °C.
Data set [3] addresses T1, Rtt109-Vps75 (Saccharomyces cerevisiae, UniProt P53853+Q07794).
T1 sequence (Q07794 1-436): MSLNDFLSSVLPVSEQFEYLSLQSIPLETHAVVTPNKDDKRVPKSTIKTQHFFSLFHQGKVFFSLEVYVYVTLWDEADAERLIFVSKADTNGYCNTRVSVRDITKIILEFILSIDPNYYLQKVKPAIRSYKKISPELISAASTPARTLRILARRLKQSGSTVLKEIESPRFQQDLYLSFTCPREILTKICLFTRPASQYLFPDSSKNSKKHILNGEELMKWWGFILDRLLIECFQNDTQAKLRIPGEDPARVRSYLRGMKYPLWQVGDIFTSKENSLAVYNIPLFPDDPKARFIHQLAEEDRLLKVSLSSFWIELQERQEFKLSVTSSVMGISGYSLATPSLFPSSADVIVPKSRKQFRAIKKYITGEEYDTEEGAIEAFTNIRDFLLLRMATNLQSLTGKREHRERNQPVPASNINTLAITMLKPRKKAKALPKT
T1 sequence (P53853 1-264 partner): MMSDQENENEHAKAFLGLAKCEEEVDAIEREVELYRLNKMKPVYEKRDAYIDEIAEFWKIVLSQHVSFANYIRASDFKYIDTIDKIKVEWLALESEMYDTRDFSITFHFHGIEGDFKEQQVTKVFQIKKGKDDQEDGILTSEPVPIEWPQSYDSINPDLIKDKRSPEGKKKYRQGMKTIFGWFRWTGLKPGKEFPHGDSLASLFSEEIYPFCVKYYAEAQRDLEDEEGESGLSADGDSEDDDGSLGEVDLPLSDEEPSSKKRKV
The experiment in a line: Isothermal titration calorimetry into Rtt109-Vps75. The class given is binding, yeast (Saccharomyces cerevisiae). (In general: Isothermal titration calorimetry measures the heat released or taken up as one component is titrated into another.)

For data set [4], the target named is T1, Rtt109-Vps75. Put plainly: CoA product inhibition of Rtt109-Vps75. In kind it is biochemical, yeast (Saccharomyces cerevisiae).
Data set [5] is described as follows: Stability of Rtt109 alone. In kind it is physicochemical. The settings on record: without AcCoA or Vps75, 25°C.
For a further data set, the system named is Rtt109. Put plainly: HAT activity with fluorescein-labeled Vps75. In kind it is biochemical, yeast. The conditions noted are these: fluorescein-5-maleimide labeled Vps75, 1:1 label to Vps75.
For the next data set, the system named is p300. The settings on record: cited from earlier work.

Entries after “also recorded” stand apart in the source; their conditions may differ. Like-named read-outs stand apart in the source and are kept apart here.

Chain of Rtt109 D288N (with Vps75) (Q07794 whole entry D288N, one chain of several): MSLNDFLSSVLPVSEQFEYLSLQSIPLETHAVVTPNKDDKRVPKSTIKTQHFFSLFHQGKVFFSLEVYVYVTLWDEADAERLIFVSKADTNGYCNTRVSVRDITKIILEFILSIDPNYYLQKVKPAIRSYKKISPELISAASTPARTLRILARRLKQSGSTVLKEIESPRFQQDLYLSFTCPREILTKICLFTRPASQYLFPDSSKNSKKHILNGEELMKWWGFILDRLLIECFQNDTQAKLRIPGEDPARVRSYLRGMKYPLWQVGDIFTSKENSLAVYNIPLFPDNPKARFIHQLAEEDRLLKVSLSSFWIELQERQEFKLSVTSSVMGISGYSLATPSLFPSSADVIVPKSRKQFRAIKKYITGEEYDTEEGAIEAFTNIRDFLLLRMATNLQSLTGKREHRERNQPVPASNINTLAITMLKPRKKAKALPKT
Chain of Rtt109 D287N (with Vps75) (Q07794 whole entry D287N, one chain of several): as the sequence (Q07794 whole entry D288N, one chain of several) above, with D287N, N288D counted along it

As to `CC(=O)SCCNC(=O)CCNC(=O)[C@H](O)C(C)(C)COP(=O)(O)OP(=O)(O)OC[C@H]1O[C@@H](n2cnc3c(N)ncnc32)[C@H](O)[C@@H]1OP(=O)(O)O` [AcCoA, acetyl-Coenzyme A], in data set [1], the Km was 0.7 ± 0.3 µM, the kcat is on record as 1.2 ± 0.1 × 10^-2 s^-1 and the kcat/Km is on record as 1.7 ± 0.7 × 10^4 M^-1s^-1. For the same molecule, in data set [2], the Michaelis constant (Km) was determined as 4.9 ± 0.9 µM, the kcat was 2.8 ± 0.2 × 10^-3 s^-1 and the kcat/Km is 6 ± 1 × 10^2 M^-1s^-1. The molecule also displayed a dissociation constant Kd on Rtt109-Vps75 [3] (167 μM AcCoA titrated into 5.8 μM Rtt109-Vps75, 50 mM Tris pH 7.5 at 25°C, 5% glycerol, 50 mM NaCl, 2 mM β-mercaptoethanol, 1 mM EDTA, one-site model) of 1.4 ± 0.3 µM. In addition, the “binding affinity for AcCoA over CoA” value at Rtt109-Vps75 [3] (ratio of binding affinities, Rtt109-Vps75) is reported as 30 fold.
Take `CC(C)(COP(=O)(O)OP(=O)(O)OC[C@H]1O[C@@H](n2cnc3c(N)ncnc32)[C@H](O)[C@@H]1OP(=O)(O)O)[C@@H](O)C(=O)NCCC(=O)NCCS` [CoA, Coenzyme A]: affinity on Rtt109-Vps75 [4] was put at a Ki of 110 ± 20 µM. In addition, the “product inhibition pattern versus AcCoA” value on Rtt109-Vps75 [4] (varied AcCoA, fixed CoA, 5 μM full-length H3, double reciprocal plot) is reported as “binds competitively with AcCoA; also recorded: competitive inhibition”. Moreover, the Kd on Rtt109-Vps75 [3] amounted to 43 ± 5 µM.
Turning to “Rtt109: yeast histone acetyltransferase, Regulator of Ty1 Transposition 109”, the “stability of protein alone” value in data set [5] was “unstable and precipitates at 25 °C; also recorded: unstable protein and is highly prone to aggregation”.
Consider “labeled Vps75: Vps75 labeled with fluorescein-5-maleimide, 1:1”, for which the “loss in HAT activity on fluorescein labeling” value in the data set on Rtt109 is listed as under 2 fold.
Turning to “p300: mammalian HAT, structural homolog of Rtt109”, the “pKa of ionizable group required for catalysis” value in the data set on p300 is given as 8.4.
